{
  "source": "paper PMC13427755",
  "about": "(Nature Communications, 2026)",
  "key": {"dog": {"system": "dog", "conditions": "28-day GLP study, delivered doses 8.9, 27.1 and 46.1 mg/kg/day, ref Investigator Brochure (IB); cited from earlier work", "protocol": "Pivotal 28-day Good Laboratory Practice (GLP) toxicity studies were performed in rats and dogs. These studies were designed such that the high dose levels would achieve at least a 50-fold margin over the proposed high clinical dose as recommended in International Council for Harmonisation (ICH)-M3(R2) guidelines."}, "[1]": {"system": "thymic stromal lymphopoietin (TSLP)", "test": "TSLP ELISA in deep bronchial brushings (DBB)", "type": "in vivo, human", "conditions": "for TSLP in DBB, Δ from baseline, median (IQR): Day 14 minus screening", "excerpt": "(§1) Bronchoscopists were instructed to obtain a total of 6 brushings from 3 of the basilar bronchial segments of the right lower lobe: the anterior basilar segment, the lateral basilar segment, and the posterior basilar segment. With the bronchoscope proximal to or within the orifice of the appropriate basilar segment, the brush sheath was to be passed out 5 cm beyond the subsegment orifice, and then the brush was fully extended an additional 1 cm for a total of 6 cm beyond the orifice of the subsegmental bronchus. At the desired depth, the sheath was to be gently pulled back and forward for 15 strokes to brush the small airways. The brushing process was repeated using any combination of the 3 basilar segments described above, at the discretion of the bronchoscopist, for a total of 6 six separate brush samples.\n(§2) Protein isolation and preparation of DBB samples for ELISAs were performed as previously described[47] according to manufacturer’s instructions for COL1A1 (#ab210966, abcam), CXCL7 (#LS-F4967-1, LS Bio), GAL7 (#DY1339, R&D Systems), IL-11 (#DY218, R&D Systems), and TSLP (#DY1398, R&D Systems).\n(§3) Descriptive statistics are reported as medians with interquartile ranges (IQR). The Hodges-Lehmann estimator was used for the median difference between groups (treatment minus placebo), with approximate 90% confidence intervals (asymmetric, exact level varied slightly with small n). Cliff’s delta was calculated as effect size using the formula δ = (2U / (n1 × n2)) − 1, with thresholds: |δ | <0.3 small effect, 0.3–0.5 medium effect, >0.5 large effect. […] No adjustment for multiplicity was performed, as these were pre-specified, hypothesis-driven exploratory analyses. All biomarker statistical analyses were conducted using GraphPad Prism Version v10.0."}, "[2]": {"conditions": "protocol, section 1.1.1.1; cited from earlier work", "excerpt": "[…]. \"Antifibrotic therapy for idiopathic pulmonary fibrosis: time to treat.\" Respiratory research 20.1 (2019) ..."}, "interleukin 11 (IL-11)": {"system": "interleukin 11 (IL-11)", "test": "IL-11 ELISA in deep bronchial brushings (DBB)", "type": "in vivo, human", "conditions": "for IL-11 in DBB, Δ from baseline, median (IQR): Day 14 minus screening", "excerpt": "as §1, §2, §3"}, "[3]": {"system": "phosphorylated (p) AKT over total AKT", "test": "AKT/pAKT in PBMCs, MSD-ECL assay", "type": "in vivo, human", "protocol": "Blood samples for biomarker assessments in PBMCs and platelet-rich plasma were collected prior to the initial dose and on day 14 following the last dose. Following optimization for detection of analytes in IPF matrices, meso-scale discovery electrochemiluminescence (MSD-ECL) assays were performed at BioAgylitix for SP-D (#K1519XR-2, MSD) in plasma and AKT/pAKT (#K15100D-1, MSD) in PBMCs according to manufacturer’s instructions.\nas §3"}, "participants with IPF": {"system": "participants with IPF", "parameters": "species or system human", "conditions": "in vivo", "protocol": "Safety and tolerability assessments were performed through treatment and follow-up and included evaluation of TEAEs, concomitant medications, physical examinations, vital signs, 12-lead ECGs, clinical laboratory assessments, spirometry, and cough symptoms using the validated LCQ[22] and a cough VAS. Spirometry was performed according to American Thoracic Society (ATS) / European Respiratory Society (ERS) Task Force guidelines[46] at all clinic visits, with assessments conducted both pre-and post-dose on study drug dosing days. Study staff monitored participants’ self-administration of the study drug (the morning dose) during on-site visits, and symptoms were monitored for at least 1h. […]\nExploratory biomarkers will be assessed in peripheral blood cells (as feasible), platelet rich plasma, BALF, BA samples, and deep bronchial brushings as outlined in Table 3. […]\nLCQ total score is equal to the sum of the domain scores (total score range from 3 to 21) with a lower score indicating greater impairment of health status due to cough . […] If a response is not provided to a question, the domain score will be calculated as the average of the scores to the answered questions within the domain. If a subject responds to less than 80% of questions in a domain, the LCQ domain score will not be calculated and will be treated as missing during analysis. […]"}},
  "note": "Where a SMILES comes first, the peptide text is derived from it.",
  "data": [
    {"smiles": "CC(C)[C@H](NC(=O)[C@@H](NC(=O)[C@H](Cc1ccccc1)NC(=O)[C@@H](NC(=O)[C@@H](NC(=O)[C@@H](N)Cc1ccccc1)[C@@H](C)O)[C@@H](C)O)[C@@H](C)O)C(=O)N[C@H](C(=O)O)[C@@H](C)O", "note": "[LTI-03] (H-FTTFTVT-OH; N-terminus and C-terminus assumed)", "values": [
      {"measurement": "no observed adverse effect level (NOAEL), achieved delivered dose", "setting": "dog", "value": 46.1, "unit": "mg/kg/day"},
      {"measurement": "TSLP in DBB, Δ from baseline, median (IQR)", "setting": "[1]; 5 mg/day, N = 7", "value": "−2.106", "unit": "pg/mg protein"},
      {"measurement": "TSLP in DBB, median difference vs placebo (Hodges-Lehmann)", "setting": "[1]; 5 mg/day, N = 7 vs pooled placebo N = 6, one-tailed Mann-Whitney p = 0.0256", "value": "−19.66", "unit": "pg/mg protein"},
      {"measurement": "TSLP in DBB, Δ from baseline, median (IQR)", "setting": "[1]; 10 mg/day, N = 9", "value": "−2.09", "unit": "pg/mg protein"},
      {"measurement": "TSLP in DBB, median difference vs placebo (Hodges-Lehmann)", "setting": "[1]; 10 mg/day, N = 9 vs pooled placebo N = 6, one-tailed Mann-Whitney p = 0.0128", "value": "−19.07", "unit": "pg/mg protein"},
      {"measurement": "solubility in water", "setting": "[2]", "value": "limited solubility"},
      {"measurement": "IL-11 in DBB, Δ from baseline, median (IQR)", "setting": "interleukin 11 (IL-11); 5 mg/day, N = 8", "value": "−11.037", "unit": "pg/mg protein"},
      {"measurement": "IL-11 in DBB, median difference vs placebo (Hodges-Lehmann)", "setting": "interleukin 11 (IL-11); 5 mg/day, N = 8 vs pooled placebo N = 6, one-tailed Mann-Whitney p = 0.0406", "value": "−21.71", "unit": "pg/mg protein"},
      {"measurement": "IL-11 in DBB, Δ from baseline, median (IQR)", "setting": "interleukin 11 (IL-11); 10 mg/day, N = 9", "value": "−6.528", "unit": "pg/mg protein"},
      {"measurement": "IL-11 in DBB, median difference vs placebo (Hodges-Lehmann)", "setting": "interleukin 11 (IL-11); 10 mg/day, N = 9 vs pooled placebo N = 6, one-tailed Mann-Whitney p = 0.044", "value": "−19.15", "unit": "pg/mg protein"},
      {"measurement": "%p-AKT in PBMCs, Cliff's delta vs placebo", "setting": "[3]; 5 mg/day", "value": "−0.33"},
      {"measurement": "%p-AKT in PBMCs, Cliff's delta vs placebo", "setting": "[3]; 10 mg/day", "value": "−0.13"},
      {"measurement": "phosphorylated (p) AKT over total AKT levels in PBMCs", "setting": "[3]; 5 and 10 mg/day vs placebo, 14 days", "value": "did not change"},
      {"measurement": "change in LCQ total score during the treatment period", "setting": "participants with IPF", "value": "No clinically significant changes"},
      {"measurement": "change in cough VAS during the treatment period", "setting": "participants with IPF", "value": "No clinically significant changes"}
    ]}
  ]
}
